# According to patent US11453689B2, “3-pyrrolidine-indole derivatives as serotonergic psychedelic agents for the treatment of CNS disorders” (Mindset Pharma Inc., priority 2020, dated 2022):
# Assays:
# [1] = Rat liver microsomes stability with NADPH; details: for half-life at 2 μM / microsomal CLint at 2 μM: male, rat, microsomes; for Remaining Percentage (%) after 60 min, Rat: rat liver microsomes, with NADPH, 2 μM
# Protocol: (§1) The objective of this study was to estimate in vitro metabolic stability of exemplary compounds in pooled human, male rat and male mouse liver microsomes. The concentrations of exemplary compounds in reaction systems were evaluated by LC-MS/MS for estimating the stability in pooled human, male rat and male mouse liver microsomes. The in vitro intrinsic clearances of test compounds were determined as well.
# (§2) A master solution in the “Incubation Plate” containing phosphate buffer, ultra-pure H2O, MgCl2 solution and liver microsomes was made according to Table 3. The mixture was pre-warmed at 37° C. water bath for 5 minutes.
# (§3) 40 μL of 10 mM NADPH solution was added to each well. The final concentration of NADPH was 1 mM. The negative control samples were prepared by replacing NADPH with 40 μL of ultra-pure H2O. Samples were prepared in duplicate. Negative controls were prepared in singlet.
# (§4) The reaction was started with the addition of 4 μL of 200 μM exemplary test compounds or control compounds to each master solution to get the final concentration of 2 μM. This study was performed in duplicate.
# (§5) Aliquots of 50 μL were taken from the reaction solution at 0, 15, 30, 45 and 60 minutes. The reaction solutions were stopped by the addition of 4 volumes of cold methanol with IS (100 nM alprazolam, 200 nM imipramine, 200 nM labetalol and 2 μM ketoprofen). Samples were centrifuged at 3,220 g for 40 minutes. Aliquot of 90 μL of the supernatant was mixed with 90 μL of ultra-pure H2O and then was used for LC-MS/MS analysis.
# (§6) LC/MS analysis was performed for all samples from this study using a Shimadzu liquid chromatograph separation system equipped with degasser DGU-20A5R; solvent delivery unit LC-30AD; system controller SIL-30AC; column oven CTO-30A; CTC Analytics HTC PAL System. Mass spectrometric analysis was performed using an Triple Quad™ 5500 instrument.
# (§7) All calculations were carried out using Microsoft Excel. Peak areas were determined from extracted ion chromatograms. The slope value, k, was determined by linear regression of the natural logarithm of the remaining percentage of the parent drug vs. incubation time curve.
# (§8) Conversion of the in vitro t1/2 (min) into the in vitro intrinsic clearance (in vitro CLint, in μL/min/mg proteins) was done using the following equation (mean of duplicate determinations): […]
# [2] = Mouse liver microsomes stability with NADPH; details: for half-life at 2 μM / microsomal CLint at 2 μM: male, mouse, microsomes; for Remaining Percentage (%) after 60 min, Mouse: mouse liver microsomes, with NADPH, 2 μM
# Protocol: as §1, §2, §3, §4, §5, §6, §7, §8
# [3] = Human liver microsomes stability with NADPH; details: for Remaining Percentage (%) after 60 min, Human: human liver microsomes, with NADPH, 2 μM; for half-life at 2 μM / microsomal CLint at 2 μM: human, microsomes
# Protocol: as §1, §2, §3, §4, §5, §6, §7, §8
# [4] = target: human 5-HT2A (h5-HT2A) receptor (Homo sapiens (Human), UniProt P28223); assay: FLIPR calcium assay, human 5-HT2A receptor, agonist mode; assay type: cell-based
# Protocol: I. Assessment of the Activated Effect of Exemplary Compounds of Formula I Targeting on Human 5-HT2A (h5-HT2A) Receptor Under Agonist Mode:
# 1. Culture the cells in cell culture medium (DMEM containing 10% FBS, 1× penicillin-streptomycin 300 μg/ml G418 and 100 μg/ml hygromycin B) at 37° C., 5% (v/v) CO2.
# 2. One day before the assays, detach the cell using TrypLE™ Express and count cells using cell counter.
# 3. Seed 20000 cells/well in 30 μl/well culture medium to a 384-well cell plate and incubate the cells overnight at 37° C., 5% (v/v) CO2.
# 4. On the assay day, prepare 2×dye solution following the manual of the FLIPR® Calcium 6 Assay Kit: i. Dilute the dye with assay buffer(20 mM HEPES in 1× HBSS, PH7.4); ii. Add probenecid to the final concentration of 5 mM; iii. Vortex vigorously for 1-2 minutes.
# 5. Medium from cell plate by flicking the cell plate on towel papers.
# 6. Add 10 μl of assay buffer and 10 μl of 2×dye solution to each well of the cell plate.
# 7. Put the cell plate on plate shaker, agitate the plate at 600 rpm for 2 minutes. Incubate the plate at 37° C. for 2 hours followed by additional 15-minute incubation at 25° C.
# 8. Prepare 3×compound in assay buffer: a. Dilute reference compounds to required concentration with DMSO. Add the compounds to a 384-well compound plate; b. Perform serial dilutions; c. Add 10 mM test compounds to the compound plate, perform 3-fold serial dilutions. d. […] Add 20 μl/well assay buffer to the compound plate; f. Mix the plate on plate shaker for 2 mins;
# i. The normalized fluorescence reading (RFU) is calculated as shown follow, while Fmax and Fmin stand for maximum and minimum of calcium signal during defined time window: RFU=Fmax−Fmin
# ii. Calculate the percentage activation by using following equation: […]
# iii. Calculate EC50 by fitting % activation against log of compound concentrations with Hill equation using XLfit.
# human 5-HT2A receptor = human 5-HT2A receptor (Homo sapiens (Human), UniProt P28223); assay: Radioligand ([3H]-ketanserin) binding assay on human 5-HT2A receptor
# Protocol: i. Prepare the assay buffer following the table below;
# ii. Preparation of 8 doses of reference and exemplary test compounds starting from 10 mM stock solution as requested by 5-fold serial dilutions with 100%;
# iii. […] a. Add 50 μl/well of 0.5% (v/v) PEI to UniFilter-96 GF/B plates. Seal the plates and incubate at 4° C. for 3 hrs; b. After incubation, wash the plates 3 times with ice-cold wash buffer (50 mM Tris, pH7.4);
# iv. Preparation of assay plates: a. Dilute cell membrane with assay buffer and add 330 μl/well to 96 round deep well plates to reach a concentration of 20 μg/well; b. Prepare 8 concentrations of reference or exemplary test compounds and add 110 μl/well to 96 round deep well plates; c. Dilute [3H]-ketanserin with assay buffer to 5 nM (5× final concentration) and add 110 μl/well to 96 round deep well plates.
# v. Centrifuge the plate at 1000 rpm for 30 secs and then agitate at 600 rpm, R.T. for 5 min.
# vi. Seal the plates and incubate the plate at 27° C. for 90 min.
# vii. Stop the incubation by vacuum filtration onto GF/B filter plates followed by 4 times washing with ice-cold wash buffer (50 mM Tris, pH7.4).
# ix. Seal the filter plates and add 40 μl/well of scintillation cocktail.
# x. Read the plate by using a Microbeta2 microplate counter.
# For reference and exemplary test compounds, the results are expressed as % Inhibition, using the normalization equation: N=100−100×(U−C2)/(C1−C2), where U is the unknown value, C1 is the average of high controls, and C2 is the average of low controls. The IC50 is determined by fitting percentage of inhibition as a function of compound concentrations with Hill equation using XLfit.
Compound,half-life at 2 μM [1] [h],microsomal CLint at 2 μM [1] [µL/min/mg],"Remaining Percentage (%) after 60 min, Rat [1] [%]",half-life at 2 μM [2] [h],microsomal CLint at 2 μM [2] [µL/min/mg],"Remaining Percentage (%) after 60 min, Mouse [2] [%]","Remaining Percentage (%) after 60 min, Human [3] [%]",half-life at 2 μM [3] [h],microsomal CLint at 2 μM [3] [µL/min/mg],EC50 [4] [nM],IC50 (human 5-HT2A receptor) [nM]
"[2H]C([2H])([2H])N1CCC[C@@H]1Cc1c[nH]c2cccc(O)c12 [Compound I-2, (R)-3-((1-(methyl-d3)pyrrolidin-2-yl)methyl)-1H-indol-4-ol]",0.627,36.8,33.13,1.43,16.2,61.51,82.10,3.51,6.57,< 1000,< 500
"[2H]C([2H])(c1c[nH]c2cccc(OC)c12)[C@H]1CCCN1C([2H])([2H])[2H] [Compound I-39, (R)-4-methoxy-3-((1-(methyl-d3)pyrrolidin-2-yl)methyl-d2)-1H-indole]",0.204,113,3.34,1.6,14.4,64.91,73.65,2.27,10.2,< 1000,500 to 5000
"[2H]C([2H])(c1c[nH]c2cccc(O)c12)[C@H]1CCCN1C([2H])([2H])[2H] [Compound I-44, (R)-3-((1-(methyl-d3)pyrrolidin-2-yl)methyl-d2)-1H-indol-4-ol]",0.608,38,32.00,1.18,19.5,55.68,78.13,2.81,8.23,< 1000,< 500
